Source: article PMC7070731, “Cytotoxic Activity of Organotin(IV) Derivatives with Triazolopyrimidine Containing Exocyclic Oxygen Atoms” (Molecules, 2020)

Key:
[1] = test system: HCT-116 (human colorectal carcinoma) cells; experiment: MTT cytotoxicity assay, HCT-116; type: cell-based; details: for IC50: 24 h treatment, read-out: IC50 (nM ± SD) HCT-116; for Influence on cell growth / viability, HCT-116: 24 h, 0.01–1 µM range
Procedure: (§1) HTC116 (human colorectal carcinoma), HepG2 (human hepatocellular carcinoma), MCF-7 (human breast cancer), 16-HBE (human bronchial epithelium) and Caco-2 (human colorectal carcinoma) cell lines were purchased from American Type Culture Collection, Rockville, MD, USA. All cell lines were grown in RPMI medium supplemented with L-glutamine (2 mM), 10% fetal bovine serum (FBS), penicillin (100 U/mL), streptomycin (100 µg/mL) and gentamicin (5 μg/mL). Cells were maintained in log phase by seeding twice a week at a density of 3 × 10^8 cells/L in humidified 5% CO2 atmosphere, at 37 °C. In all experiments, after plating, cells were allowed to adhere overnight and then treated with the compounds or vehicle alone (control cells), whereas Caco-2 cells were treated 15 days after confluence, at which time the cells are differentiated in normal intestinal-like cells. No differences were found between cells treated with DMSO 0.1% and untreated cells in terms of cell number and viability.
(§2) Cytotoxic activity of the organotin compounds against human tumor cell lines (HCT-116, HepG2 and MCF-7) and human normal cells (16-HBE and intestinal-like differentiated Caco2 cells) was determined using the MTT colorimetric assay based on the reduction of 3-(4,5-dimethyl-2-thiazolyl)bromide-2,5-diphenyl-2H-tetrazolium (MTT) to purple formazan using mitochondrial dehydrogenases of living cells, as reported. This method is commonly used to illustrate inhibition of cellular proliferation. Monolayer cultures were treated for 24 h with various concentrations (0.01-1 µM) of the drugs. Cisplatin was used for comparison. Briefly, all cell lines were seeded at 1.0 × 10^4 cells/well in 96-well plates containing 200 μL RPMI. When appropriated, cells were washed with fresh medium and incubated with the compounds in RPMI. After incubation, cells were washed, and 50 μL FBS-free medium containing 5 mg/mL MTT was added. The medium was discarded after a 2 h incubation at 37 °C by centrifugation, and formazan blue formed in the cells was dissolved in DMSO. The absorbance, measured at 570 nm in a microplate reader (Bio-RAD, Hercules, CA, USA) of MTT formazan of control cells was taken as 100% of viability. The growth inhibition activity of compounds was estimated by comparison with the not-treated control. The values for the inhibitory concentration for 50% of the tested compounds (IC50) were calculated using a sigmoidal model using GraphPad Prism 5.02 from GraphPad Software (San Diego, CA, USA). Each experiment was repeated three times in triplicate to obtain the mean values.

[2] = test system: HepG2 (human hepatocellular cancer) cells; experiment: MTT cytotoxicity assay, HepG2; type: cell-based; details: for IC50: 24 h treatment, read-out: IC50 (nM ± SD) HepG2; for Influence on cell growth / viability, HepG2: 24 h, 0.01–1 µM range
Procedure: as §1, §2

[3] = test system: MCF-7 (human breast cancer) cells; experiment: MTT cytotoxicity assay, MCF-7; type: cell-based; details: for IC50: 24 h treatment, read-out: IC50 (nM ± SD) MCF-7; for Influence on cell growth / viability, MCF-7: 24 h, 0.01–1 µM range
Procedure: as §1, §2

[4] = test system: HCT-116 cells; experiment: Mitochondrial transmembrane potential, DiOC6 flow cytometry; type: cell-based, human; details: 24 h, control 3.2%
Procedure: Mitochondrial transmembrane potentials (Δψm) were assessed using flow cytofluorometry, with the cationic lipophilic dye 3,3′-dihexyloxacarbocyanine iodide(3) (DiOC6) (Molecular Probes, Inc., Life Technologies Italia, Monza, Italy), which accumulates in the mitochondrial matrix. Changes in mitochondrial membrane potential are indicated by a reduction in the DiOC6-induced fluorescence intensity. After 24 h treatment, cells were incubated with DiOC6 at a 40 nmol/L final concentration, for 15 min at 37 °C. After centrifugation, cells were washed with phosphate buffer saline (PBS) and suspended in 500 μL PBS. Then, samples of 1.0 × 10^4 cells were subjected to FACS analysis.

[5] = test system: HCT-116 cells; experiment: Intracellular ROS, DCFH-DA flow cytometry; type: cell-based, human; details: 24 h, control 1.9%
Procedure: ROS level was monitored by measuring fluorescence changes that resulted from intracellular oxidation of 2′,7′-dichlorofluorescin diacetate (DCFH-DA). DCFH-DA, at 10 μM final concentration, was added to the cell medium 30 min before the end of the treatment. The cells were collected using centrifugation for 5 min at 2000 rpm at 4 °C, washed, suspended in PBS and immediately subjected to FACS analysis. At least 1 × 10^4 cells were analyzed for each sample.

[6] = test system: intestinal normal-like differentiated Caco-2 cells; experiment: MTT viability assay, normal-like differentiated Caco-2 cells; type: cell-based, human; details: 24 h; for Effect on cell survival, normal-like differentiated Caco-2 cells: MTT, reduction seen in the 1–10 μM range; for CC50: differentiated Caco-2, MTT, concentration lethal to 50% of the normal cells, read-out: Normal-Like Intestinal Cells LC50
Procedure: as §1
as §2, with “Monolayer cultures were treated for 24 h with various concentrations (0.01-1 µM) of the drugs.” left out
(§3) Formazan of control cells was taken as 100% viability and the 50% lethal concentrations of the synthesized complexes (LC50) were determined by plotting the graph of cell viability versus the concentrations. The selectivity index (SI) values were calculated for each compound by dividing the LC50 of normal differentiated Caco2 or 16-HBE cells by the IC50 of HCT-116 tumor cells. Each experiment was repeated three times in triplicate.

[7] = test system: human bronchial epithelial cells (16-HBE); experiment: MTT viability assay, 16-HBE cells; type: cell-based; details: 24 h; for CC50: concentration lethal to 50% of the normal cells, read-out: 16-HBE Cells LC50; for Effect on cell survival, 16-HBE cells: reduction seen in the 1–10 μM range
Procedure: as §1
as §2, with “Monolayer cultures were treated for 24 h with various concentrations (0.01-1 µM) of the drugs.” left out
as §3

[8] = test system: HCT-116 cells; experiment: Cell cycle analysis, propidium iodide flow cytometry; type: cell-based, human; details: HCT-116, 24 h of treatment
Procedure: Cell cycle stage was analyzed using flow cytometry. Aliquots of 1.0 × 10^6 cells were harvested using centrifugation, washed with PBS and incubated in the dark in a PBS solution containing Triton X100 (0.1%, v/v), 20 μg/mL propidium iodide (PI) and 200 µg/mL RNase, for 30 min, at room temperature. Then, samples were immediately subjected to FACS analysis. At least 1 × 10^4 events were analyzed for each sample.

[9] = test system: p53; experiment: Western blot, p53 level in HCT 116 cells; type: cell-based, human; details: 24 h, immunoblotting
Procedure: (§4) After treatment with the compound, protein extracts were prepared and equal amounts of protein samples (80 μg/lane), subjected to SDS-PAGE, were transferred to nitrocellulose membrane as previously reported. The immunoblot was incubated overnight at 4 °C with blocking solution (5% skim milk), followed by incubation with anti-p21 (F-5, Cat No SC-6246 Santa Cruz Biotechnology) or anti-p53 (DO-1, Cat No SC-126, Santa Cruz Biotechnology) for 1 h at room temperature. Blots were washed two times with Tween 20/Tris-buffered saline (TTBS) and incubated with a 1:2000 dilution of horseradish peroxidase (HRP)-conjugated anti-IgG antibody (Dako Denmark, Glostrup, Denmark) for 1 h at room temperature. Blots were again washed five times with TTBS and then developed using enhanced chemiluminescence (Amersham Life Science, Arlington Heights, IL, USA.). Immunoreactions were also performed using β-actin antibody as loading controls.

[10] = test system: p21^WAF1; experiment: Western blot, p21WAF1 level in HCT 116 cells; type: cell-based, human; details: 24 h, immunoblotting
Procedure: as §4

Compound | IC50 [1] [nM] | IC50 [2] [nM] | IC50 [3] [nM] | Cells with dissipated mitochondrial membrane potential ([4]; 20 μM) [%] | AY, ROS production (DCFH-DA fluorescent cells) ([5]; 20 μM) [%] | Effect on cell survival, normal-like differentiated Caco-2 cells [6] | CC50 [6] [nM] | CC50 [7] [nM] | Effect on cell survival, 16-HBE cells [7] | Cells with dissipated mitochondrial membrane potential ([4]; 0.1 μM) [%] | AY, ROS production (DCFH-DA fluorescent cells) ([5]; 0.1 μM) [%] | Effect on cell cycle distribution [8] | Effect on level of p53 [9] | Effect on level of p21 [10] | Influence on cell growth / viability, HCT-116 [1] | Influence on cell growth / viability, HepG2 [2] | Influence on cell growth / viability, MCF-7 [3]
N.N.[Cl][Pt][Cl] [Cisplatin, reference compound] | 46000 | 65000 | 10000 | 17.4 | 23.5 | – | – | – | – | – | – | – | – | – | – | – | –
CCC[CH2][Sn]([CH2]CCC)([CH2]CCC)[O]c1cc(C)nc2ncnn12 [Compound 4, n-Bu3Sn(mtpO)] | 34 ± 3 | 53 ± 6 | 118 ± 10 | – | – | reduction of the cell survival | 5000 ± 400 | 11000 ± 1000 | reduction of the cell survival | 28.5 | 27.3 | block of cell duplication in the G0/G1 phase | did not vary | did not vary | – | – | –
Ph3Sn(HtpO2) [Compound 6] | 60 ± 5 | 63 ± 5 | 102 ± 9 | – | – | did not affect the cell viability at any assayed concentration | – | – | did not affect the cell viability at any assayed concentration | 25.1 | 25.3 | cell cycle arrest in phase G2/M | – | – | – | – | –
Cc1cc([O][Sn]([CH3])([CH3])[CH3])n2ncnc2n1 [Compound 3, Me3Sn(mtpO)] | > 1000 | > 1000 | > 1000 | – | – | – | – | – | – | – | – | – | – | – | no influence on cell growth | no influence on cell growth | no influence on cell growth
[CH3][Sn]([CH3])([CH3])[O]c1ccn2ncnc2n1 [Compound 1, Me3Sn(5tpO)] | > 1000 | > 1000 | > 1000 | – | – | – | – | – | – | – | – | – | – | – | no influence on cell growth | no influence on cell growth | no influence on cell growth
CCC[CH2][Sn]([CH2]CCC)([CH2]CCC)[O]c1ccn2ncnc2n1 [Compound 2, n-Bu3Sn(5tpO)] | 70 ± 8 | 70 ± 6 | 233 ± 21 | – | – | reduction of the cell survival | 6000 ± 400 | 17000 ± 1000 | reduction of the cell survival | 23.5 | 22.5 | block of cell duplication in the G0/G1 phase | did not vary | did not vary | – | – | –
n-Bu3Sn(HtpO2) [Compound 5] | 101 ± 11 | 117 ± 10 | 487 ± 47 | – | – | reduction of the cell survival | 12000 ± 1000 | 22000 ± 1000 | reduction of the cell survival | 18.3 | 20.2 | block of cell duplication in the G0/G1 phase | did not vary | did not vary | – | – | –
